Data reported in patent US20120157494A1, “ISOINDOLYL COMPOUNDS” (priority 2010, published 2012).

What was measured:
hP2X7 = target: T1, hP2X7 (Homo sapiens, UniProt Q99572); assay: Intracellular Calcium Flux (FLIPR) Assay; assay type: cell-based; conditions: 1321N1 cells stably expressing human P2X7; agonist 100 μM BzATP; 20 min equilibration with antagonist; read-out: FLIPR pIC50 hP2X7-1321n1 (converted)
T1 construct: 1321N1 cells stably expressing the full length human P2X7 gene (1321N1-hP2X7); expressed in transfected cells
T1 sequence (Q99572 1-595): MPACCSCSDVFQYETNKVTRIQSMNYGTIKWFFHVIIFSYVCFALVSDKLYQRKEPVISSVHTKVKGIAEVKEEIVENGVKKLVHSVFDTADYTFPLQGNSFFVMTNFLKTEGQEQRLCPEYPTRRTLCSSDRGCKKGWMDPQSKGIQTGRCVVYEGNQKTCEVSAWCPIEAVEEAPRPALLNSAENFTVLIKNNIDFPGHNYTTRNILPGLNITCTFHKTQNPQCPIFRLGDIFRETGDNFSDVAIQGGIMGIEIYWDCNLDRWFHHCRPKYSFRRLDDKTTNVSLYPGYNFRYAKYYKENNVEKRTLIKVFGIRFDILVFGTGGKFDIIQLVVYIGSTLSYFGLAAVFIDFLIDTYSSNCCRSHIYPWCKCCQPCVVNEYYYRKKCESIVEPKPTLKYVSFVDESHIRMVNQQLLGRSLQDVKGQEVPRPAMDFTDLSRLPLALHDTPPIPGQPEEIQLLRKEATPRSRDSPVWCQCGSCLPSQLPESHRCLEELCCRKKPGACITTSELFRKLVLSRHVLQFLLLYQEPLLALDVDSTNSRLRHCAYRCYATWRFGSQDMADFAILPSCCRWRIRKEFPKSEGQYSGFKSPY
Protocol: Stock solutions of compounds were prepared from powders as a 10 mM DMSO stock solution. These solutions were stored at RT during the two week period of these experiments to prevent freeze-thaw of the DMSO stocks. The DMSO stocks were added to the appropriate assay buffer at a concentration of 10 μM, and then diluted serially to the final concentrations that were tested. No observable precipitate was formed at any time during this process. The aqueous solutions of compounds as well as ATP (Sigma A7699) and BzATP (Sigma B6396) were prepared fresh for each day of experiment.
1321N1 cells stably expressing the full length human P2X7 gene (1321N1-hP2X7) and HEK293 cells stably expressing the full length rat P2X7 gene (HEK293-rP2X7) were obtained from the Roche Cell Culture Facility. 1321N1-hP2X7 cells were grown in Dulbecco's Modified Eagle's Medium (DMEM) high glucose supplemented with 10% FBS and 250 μg/mL G418. HEK293-rP2X7 cells were grown in DMEM/F-12 supplemented with 10% FBS, 1 mM CaCl2, 2 mM MgCl2, 2 mM L-Glutamine and 500 μg/ml G418. Cells were split such that they never became >70% confluent.
On the day prior to the experiment, 1321N1-hP2X7 or HEK293-rP2X7 cells were released into suspension with calcium-free PBS+Versene and washed by centrifugation with calcium-free PBS to remove the Versene. Cells were resuspended in growth medium at a density of 2.5×10^5 cells/mL and seeded into black walled, clear bottom 96 well plates (50,000 cells/well) approximately 18 hr prior to intracellular calcium flux experiments.
On the day of the experiment, plates were washed with FLIPR buffer (calcium- and magnesium-free Hank's Balanced Salt Solution (HBSS) supplemented with 10 mM Hepes, 2.5 mM probenecid and 2 mM calcium chloride) using a BIO-TEK 96 channel plate washer and incubated with […] fluo-3 dye at 37° C. for one hr. The dye was then removed by plate washing and the cells were allowed to equilibrate for 20 min at room temperature with antagonist or vehicle (FLIPR buffer). Agonist (100 μM BzATP final concentration for hP2X7; 5 μM BzATP final concentration or rP2X7) was added online with the FLIPR and fluorescence measurements made at 1 sec intervals for 60 sec followed by 3 sec intervals for a further 4 min (5 min total). A final addition of 5 μM ionomycin was made and the maximal BzATP-evoked fluorescence normalized to the maximal ionomycin-evoked fluorescence.

Question: What does the source list for `O=C(NCc1cccs1)[C@@H]1CCCN(c2cccc3c2C(=O)N(Cc2ccncc2)C3=O)C1` [Compound I-8, (R)-1-(1,3-Dioxo-2-pyridin-4-ylmethyl-2,3-dihydro-1H-isoindol-4-yl)-piperidine-3-carboxylic acid (thiophen-2-ylmethyl)-amide]?
Answer: melting point: 193 to 194 °C; IC50 (hP2X7): 437 nM
